In patent US20080293727A1, “Novel sulfonamide inhibitors of aspartyl protease” (priority 1992, published 2008):

These compounds were tested against HIV-1 protease (Human immunodeficiency virus type 1 group M subtype B, UniProt P04585) (assay: Inhibition constants against HIV-1 protease (method of Pennington et al.)). Details: HIV-1 protease; read-out: Ki value.
Assay type: biochemical
Text: We measured the inhibition constants of the compounds listed in Table VII against HIV-1 protease using the above-cited method of Pennington et al.
With `NC(=O)C[C@H](NC(=O)c1ccc2ccccc2n1)C(=O)N[C@@H](Cc1ccccc1)[C@H](O)CN(Cc1ccccc1)S(=O)(=O)c1ccccc1` [Compound 1] the Ki was 4 nM. For `Cc1noc(C)c1S(=O)(=O)N(Cc1ccccc1)C[C@@H](O)[C@H](Cc1ccccc1)NC(=O)[C@H](CC(N)=O)NC(=O)c1ccc2ccccc2n1` [Compound 3], the Ki was 32 nM. `NC(=O)C[C@H](NC(=O)c1ccc2ccccc2n1)C(=O)N[C@@H](Cc1ccccc1)[C@H](O)CN(Cc1ccccc1)S(=O)(=O)c1cccc(C(F)(F)F)c1` [Compound 4] gave a Ki of 19 nM. Work on `CC(=O)Nc1nc(C)c(S(=O)(=O)N(Cc2ccccc2)C[C@@H](O)[C@H](Cc2ccccc2)NC(=O)[C@H](CC(N)=O)NC(=O)c2ccc3ccccc3n2)s1` [Compound 5] yielded a Ki of 2 nM. `NC(=O)C[C@H](NC(=O)c1ccc2ccccc2n1)C(=O)N[C@@H](Cc1ccccc1)[C@H](O)CN(Cc1ccccc1)S(=O)(=O)c1ccc(-c2ccon2)s1` [Compound 6, (S)-N-1-(1-Benzyl-3-(benzyl-(5-isoxazol-3-yl-thiophene-2-sulfonyl)-amino)-(1S,2 syn)-1-benzyl-2-hydroxy-propyl)-2-((quinoline-2-carbonyl)-amino)-succinamide] gave a Ki of 3 nM. `NC(=O)C[C@H](NC(=O)c1ccc2ccccc2n1)C(=O)N[C@@H](Cc1ccccc1)[C@H](O)CN(Cc1ccccc1)S(=O)(=O)c1cccc(C(=O)O)c1` [Compound 7] was tested, and the Ki was 8 nM. With `CS(=O)(=O)N(Cc1ccccc1)C[C@@H](O)[C@H](Cc1ccccc1)NC(=O)[C@H](CC(N)=O)NC(=O)c1ccc2ccccc2n1` [Compound 8] the Ki was 850 nM. `NC(=O)C[C@H](NC(=O)c1ccc2ccccc2n1)C(=O)N[C@@H](Cc1ccccc1)[C@H](O)CN(Cc1ccccc1)S(=O)(=O)c1cccc2nonc12` [Compound 9, (S)-N-1-(3-((Benzo(1,2,5)oxadiazole-4-sulfonyl)-benzyl-amino)-(1S,2 syn)-1-benzyl-2-hydroxy-propyl)-2-((quinoline-2-carbonyl)-amino)-succinamide] was tested, and the Ki was 4 nM. `NC(=O)C[C@H](NC(=O)c1ccc2ccccc2n1)C(=O)N[C@@H](Cc1ccccc1)[C@H](O)CN(Cc1ccccc1)S(=O)(=O)c1cccc(S(N)(=O)=O)c1` [Compound 10, N-1-(1-(S)-Benzyl-3-(benzyl-(3-sulfamoyl-benzenesulfonyl)-amino)-2-(syn)-hydroxy-propyl)-2-((quinoline-2-carbonyl)-amino)-succinamide] gave a Ki of 4 nM. `CN(C)S(=O)(=O)N(Cc1ccccc1)C[C@@H](O)[C@H](Cc1ccccc1)NC(=O)[C@H](CC(N)=O)NC(=O)c1ccc2ccccc2n1` [Compound 11] gave a Ki of 34 nM. `CC(C)CN(C[C@@H](O)[C@H](Cc1ccccc1)NC(=O)[C@H](CC(N)=O)NC(=O)c1ccc2ccccc2n1)S(=O)(=O)c1cc(S(=O)(=O)c2ccccc2)cs1` [Compound 13, (S)-N-1-(3-((4-Benzenesulfonyl-thiophene-2-sulfonyl)-isobutyl-amino)-(1S,2 syn)-1-benzyl-2-hydroxy-propyl)-2-((quinoline-2-carbonyl)-amino)-succinamide] showed a Ki of 0.2 nM. In the case of `CC(C)CN(C[C@@H](O)[C@H](Cc1ccccc1)NC(=O)[C@H](CC(N)=O)NC(=O)c1ccc2ccccc2n1)S(=O)(=O)c1ccc(F)cc1` [Compound 14, (S)-N-1-(1-(S)-Benzyl-3-((4-fluoro-benzenesulfonyl)-isobutyl-amino)-2-(syn)-hydroxy-propyl)-2-((quinoline-2-carbonyl)-amino)-succinamide], the Ki is reported as 0.1 nM. Work on `CC(=O)Nc1ccc(S(=O)(=O)N(CC(C)C)C[C@@H](O)[C@H](Cc2ccccc2)NC(=O)[C@H](CC(N)=O)NC(=O)c2ccc3ccccc3n2)cc1F` [Compound 15, (S)-N-1-(3-((4-Acetylamino-3-fluoro-benzenesulfonyl)-isobutyl-amino)-(1S,2 syn)-1-benzyl-2-hydroxy-propyl)-2-((quinoline-2-carbonyl)-amino)-succinamide] yielded a Ki of less than 0.1 nM. `CC(=O)Nc1cc(S(=O)(=O)N(CC(C)C)C[C@@H](O)[C@H](Cc2ccccc2)NC(=O)[C@H](CC(N)=O)NC(=O)c2ccc3ccccc3n2)ccc1F` [Compound 16, (S)-N-1-(3-((3-Acetylamino-4-fluoro-benzenesulfonyl)-isobutyl-amino)-(1S,2 syn)-1-benzyl-2-hydroxy-propyl)-2-((quinoline-2-carbonyl)-amino)-succinamide] was tested, and the Ki was less than 0.1 nM. Work on `CC(=O)Nc1ccc(S(=O)(=O)N(CC(C)C)C[C@@H](O)[C@H](Cc2ccccc2)NC(=O)[C@H](CC(N)=O)NC(=O)c2ccc3ccccc3n2)cc1` [Compound 17, (S)-N-1-(1-(S)-Benzyl-3-((4-acetylamino-benzenesulfonyl)-isobutyl-amino)-2-(syn)-hydroxy-propyl)-2-((quinoline-2-carbonyl)-amino)-succinamide] yielded a Ki of less than 0.1 nM. `CC(=O)Nc1nc(C)c(S(=O)(=O)N(CC(C)C)C[C@@H](O)[C@H](Cc2ccccc2)NC(=O)[C@H](CC(N)=O)NC(=O)c2ccc3ccccc3n2)s1` [Compound 18] showed a Ki of less than 0.1 nM. `CC(=O)Nc1cccc(S(=O)(=O)N(CC(C)C)C[C@@H](O)[C@H](Cc2ccccc2)NC(=O)[C@H](CC(N)=O)NC(=O)c2ccc3ccccc3n2)c1` [Compound 19, (S)-N-1-(3-((3-Acetylamino-benzenesulfonyl)-isobutyl-amino)-(1S,2 syn)-1-benzyl-2-hydroxy-propyl)-2-((quinoline-2-carbonyl)-amino)-succinamide] showed a Ki of less than 0.1 nM. Compound `CC(C)CN(C[C@@H](O)[C@H](Cc1ccccc1)NC(=O)[C@H](CC(N)=O)NC(=O)c1ccc2ccccc2n1)S(=O)(=O)c1cccc2nonc12` [Compound 20, (S)-N-1-(3-((Benzo(1,2,5)oxadiazole-4-sulfonyl)-isobutyl-amino)-(1S,2 syn)-1-benzyl-2-hydroxy-propyl)-2-((quinoline-2-carbonyl)-amino)-succinamide] has a Ki of 0.1 nM. `CC(C)CN(C[C@@H](O)[C@H](Cc1ccccc1)NC(=O)[C@H](CC(N)=O)NC(=O)c1ccc2ccccc2n1)S(=O)(=O)N(C)C` [Compound 21, N-1-((1S-2 syn)-1-Benzyl-2-hydroxy-3-(1-isobutyl-3,3-dimethylsulfonylurea)-propyl)-2-((quinoline-2-carbonyl)-amino)-succinamide] gave a Ki of 0.7 nM. `CC(=O)Nc1ccc(S(=O)(=O)N(CC(C)C)C[C@@H](O)[C@H](Cc2ccccc2)NC(=O)[C@@H](NC(=O)OCc2ccccn2)C(C)C)cc1` [Compound 22] gave a Ki of 1 nM. `CC(C)CN(C[C@@H](O)[C@H](Cc1ccccc1)NC(=O)[C@@H](NC(=O)OCc1ccccn1)C(C)C)S(=O)(=O)N(C)C` [Compound 24] showed a Ki of 32500 nM. `CC(C)CN(C[C@@H](O)[C@H](Cc1ccccc1)NC(=O)[C@@H](NC(=O)OCc1cccnc1)C(C)C)S(=O)(=O)c1cccc2nonc12` [Compound 25] gave a Ki of 3000 nM. `C=CCOC(=O)N[C@@H](Cc1ccccc1)[C@H](O)CN(CC(C)C)S(=O)(=O)c1ccc(NC(C)=O)cc1` [Compound 27] showed a Ki of 8 nM. Work on `CC(=O)Nc1ccc(S(=O)(=O)N(CC(C)C)C[C@@H](O)[C@H](Cc2ccccc2)NC(=O)OCC(C)C)cc1` [Compound 28] yielded a Ki of 17 nM. Compound `CC(=O)Nc1ccc(S(=O)(=O)N(CC(C)C)C[C@@H](O)[C@H](Cc2ccccc2)NC(=O)OC(C)C)cc1` [Compound 29] has a Ki of 17 nM. In the case of `CC(=O)Nc1ccc(S(=O)(=O)N(CC(C)C)C[C@@H](O)[C@H](Cc2ccccc2)NC(=O)OCCN2CCCC2=O)cc1` [Compound 30], the Ki is reported as 61 nM. `CC(C)CN(C[C@@H](O)[C@H](Cc1ccccc1)NC(=O)OC(C)(C)C)S(=O)(=O)c1ccc(F)cc1` [Compound 32] was tested, and the Ki was 2.5 nM. `CC(=O)Nc1ccc(S(=O)(=O)N(CC(C)C)C[C@@H](O)[C@H](Cc2ccccc2)NC(=O)NCc2ccccc2)cc1` [Compound 33] gave a Ki of 80 nM. With `COCCOC(=O)N[C@@H](Cc1ccccc1)[C@H](O)CN(CC(C)C)S(=O)(=O)c1ccc(NC(C)=O)cc1` [Compound 34] the Ki was 17 nM. `CC(C)CN(C[C@@H](O)[C@H](Cc1ccccc1)NC(=O)O[C@H]1CCOC1)S(=O)(=O)c1ccc(F)cc1` [Compound 35, 4-Fluoro-N-((2 syn,3S)-2-hydroxy-4-phenyl-3-((S)-tetrahydrofuran-3-yloxycarbonylamino)-butyl)-N-isobutyl-benzenesulfonamide] showed a Ki of 4 nM. In the case of `C=CCCOC(=O)N[C@@H](Cc1ccccc1)[C@H](O)CN(CC(C)C)S(=O)(=O)c1ccc(NC(C)=O)cc1` [Compound 36], the Ki is reported as 19 nM. `CC(C)CN(C[C@@H](O)[C@H](Cc1ccccc1)NC(=O)O[C@H]1CCOC1)S(=O)(=O)c1ccc(Cl)c(Cl)c1` [Compound 37, 3,4-Dichloro-N-((2 syn,3S)-2-hydroxy-4-phenyl-3-((S)-tetrahydrofuran-3-yloxycarbonylamino)-butyl)-N-isobutyl-benzenesulfonamide] gave a Ki of 0.1 nM. For `CC(C)CN(C[C@@H](O)[C@H](Cc1ccccc1)NC(=O)OCc1ccccc1)S(=O)(=O)c1ccc(F)cc1` [Compound 38], the Ki was 1.5 nM. Work on `CC(=O)Nc1ccc(S(=O)(=O)N(CC(C)C)C[C@@H](O)[C@H](Cc2ccccc2)NC(=O)OC(C)(C)C)cc1` [Compound 39] yielded a Ki of 17 nM. In the case of `CC(=O)Nc1ccc(S(=O)(=O)N(CC(C)C)C[C@@H](O)[C@H](Cc2ccccc2)NC(=O)[C@@H]2CC(=O)NC(=O)N2)cc1` [Compound 40], the Ki is reported as 1100 nM. `CC(=O)Nc1ccc(S(=O)(=O)N(CC(C)C)C[C@@H](O)[C@H](Cc2ccccc2)NC(=O)C(=O)NC(C)(C)C)cc1` [Compound 41] gave a Ki of 220 nM. `CC(=O)Nc1ccc(S(=O)(=O)N(CC(C)C)C[C@@H](O)[C@H](Cc2ccccc2)NC(=O)CCC(N)=O)cc1` [Compound 42] showed a Ki of 46 nM. Compound `CC(=O)Nc1ccc(S(=O)(=O)N(CC(C)C)C[C@@H](O)[C@H](Cc2ccccc2)NC(=O)[C@@H]2CCC(=O)N2)cc1` [Compound 43] has a Ki of 4200 nM. `CC(=O)Nc1ccc(S(=O)(=O)N(CC(C)C)C[C@@H](O)[C@H](Cc2ccccc2)NC(=O)OCc2cccnc2)cc1` [Compound 44, N-(4-(((2 syn,3S)-2-Hydroxy-4-phenyl-3-(pyridin-3-yl-methoxycarbonylamino)-butyl)-isobutyl-sulfamoyl)-phenyl)-acetamide] gave a Ki of 5 nM. `CC(C)CN(C[C@@H](O)[C@H](Cc1ccccc1)NC(=O)OC(C)(C)C)S(=O)(=O)c1ccccc1` [Compound 45] gave a Ki of 6 nM.
